In the assay the target is T1, CCR9 (Homo sapiens, UniProt P51686).
T1 construct: chemokine expressing cells (such as THP-1 cells for CCR2 assay or MOLT-4 cells for CCR9 assay); host or cells: MOLT-4
T1 sequence (P51686 1-369): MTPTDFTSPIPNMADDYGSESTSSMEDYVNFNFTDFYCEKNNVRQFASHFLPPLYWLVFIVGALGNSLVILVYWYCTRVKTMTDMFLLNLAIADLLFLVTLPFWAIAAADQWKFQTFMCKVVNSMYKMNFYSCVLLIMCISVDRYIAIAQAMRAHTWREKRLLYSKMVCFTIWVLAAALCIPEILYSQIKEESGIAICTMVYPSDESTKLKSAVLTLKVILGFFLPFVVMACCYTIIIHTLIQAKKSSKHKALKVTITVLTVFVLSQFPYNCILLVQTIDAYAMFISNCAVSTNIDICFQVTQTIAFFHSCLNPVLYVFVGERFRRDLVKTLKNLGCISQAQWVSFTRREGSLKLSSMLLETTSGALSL
Kind of assay: CCR9 activity in one of the chemotaxis, binding or calcium mobilization assays. Type of assay: cell-based. The conditions noted are these: binding or calcium mobilization assays (MOLT-4 cells, TECK). Here is the method:
THP-1 cells and MOLT-4 cells were obtained from the American Type Culture Collection (Manassas, Va.) and cultured in RPMI tissue culture medium supplemented with 10% fetal calf serum (FCS) in a humidified 5% CO2 incubator at 37° C. Recombinant human chemokine proteins MCP-1 and TECK were obtained from R&D Systems (Minneapolis, Minn.). ^125I-labeled MCP-1 protein was obtained from Amersham (Piscataway, N.J.). ChemoTX® chemotaxis microchambers were purchased from Neuro Probe (Gaithersburg, Md.). CyQUANT® cell proliferation kits were purchased from Molecular Probes (Eugene, Oreg.). Calcium indicator dye Fluo-4 AM was purchased from Molecular Devices (Mountain View, Calif.).
Conventional migration assay was used to determine the efficacy of potential receptor antagonists in blocking migration mediated through chemokines (such as CCR2 or CCR9). This assay was routinely performed using the ChemoTX® microchamber system with a 5-μm pore-sized polycarbonate membrane. To begin such an assay, chemokine expressing cells (such as THP-1 cells for CCR2 assay or MOLT-4 cells for CCR9 assay) were harvested by centrifugation of cell suspension at 1000 RPM on a GS-6R Beckman centrifuge. The cell pellet was resuspended in chemotaxis buffer (HBSS with 0.1% BSA) at 10×10^6 cells/mL for CCR2 assay (5×10^6 cells/mL for CCR9 assay). Test compounds at desired concentrations were prepared from 10 mM stock solutions by serial dilutions in chemotaxis buffer. An equal volume of cells and compounds were mixed and incubated at room temperature for 15 minutes. Afterwards, 20 μL of the mixture was transferred onto the porous membrane of a migration microchamber, with 29 μL of chemokine ligand (0.1 nM chemokine MCP-1 protein for CCR2 assay or […] chemokine TECK protein for CCR9 assay) placed at the lower chamber. Following an incubation at 37° C. (90-minute for CCR2; 150-minute for CCR9), during which cells migrated […] the chemokine gradient, the assay was terminated by removing the cell drops from atop the filter. To quantify cells migrated across the membrane, 5 μL of 7× CyQUANT® solution was added to each well in the lower chamber, and the fluorescence signal measured on a Spectrafluor Plus fluorescence plate reader (TECAN, Durham, N.C.). The degree of inhibition was determined by comparing migration signals between compound-treated and untreated cells. IC50 calculation was further performed by non-linear squares regression analysis using Graphpad Prism (Graphpad Software, San Diego, Calif.).
Calcium flux assay measures an increase in intracellular calcium following ligand-induced receptor activation. In the screen of chemokine antagonists, it was used as a secondary assay carried out on a FLIPR® machine (Molecular Devices, Mountain View, Calif.). To begin an assay, chemokine expressing cells (such as THP-1 cells for CCR2 assay or MOLT-4 cells for CCR9 assay) were harvested by centrifugation of cell suspension, and resuspended to 1.5×10^6 cells/mL in HBSS (with 1% fetal calf serum). Cells were then labeled with a calcium indicator dye Fluo-4 AM for 45 minutes at 37° C. with gentle shaking. Following incubation, cells were pelletted, washed once with HBSS and resuspended in the same buffer at a density of 1.6×10^6 cells/mL. One hundred microliters of labeled cells were mixed with 10 μL of test compound at the appropriate concentrations on an assay plate. Chemokine protein (MCP-1 at a final concentration of 0.1 nM for CCR2 assay or TECK at a final concentration of 25 nM for CCR9 assay) to activate the receptor. The degree of inhibition was determined by comparing calcium signals between compound-treated and untreated cells. IC50 calculations were further performed by non-linear squares regression analysis using Graphpad Prism (Graphpad Software, San Diego, Calif.).

For `CC(C)(C)c1ccc(S(=O)(=O)Nc2cc(Cl)cnc2-c2nnc3n2CCNC3)cc1`, the half-maximal inhibitory concentration (IC50) is under 1 µM.

Take `Cn1c(-c2ncc(Cl)cc2NS(=O)(=O)c2ccc(C(C)(C)C)cc2)nnc1C1CCNCC1`: the IC50 is under 1 µM. As for `Cc1nnc(-c2ncc(Cl)cc2NS(=O)(=O)c2ccc(C(C)(C)C)cc2)n1C(C)C`, the IC50 was under 1 µM. With `CC(C)(C)c1ccc(S(=O)(=O)Nc2cc(Cl)cnc2-c2nncn2-c2ccccc2F)cc1`, the 50% inhibitory concentration (IC50) is under 1 µM. For `Cc1cnc(-c2nncn2C2CCNC2)c(NS(=O)(=O)c2ccc(C(C)(C)C)cc2)c1` (centres unmarked) the value was under 1 µM; for `CC(C)n1c(C(=O)N(C)C)nnc1-c1ncc(Cl)cc1NS(=O)(=O)c1ccc(C(C)(C)C)cc1`, under 1 µM. `CCn1cnnc1-c1ncc(Cl)cc1NS(=O)(=O)c1ccc(C(C)(C)C)cc1`: the IC50 is under 1 µM. The same measure for `Cn1c(-c2ccno2)nnc1-c1ncc(Cl)cc1NS(=O)(=O)c1ccc(C(C)(C)C)cc1`: under 1 µM.

In the case of `Cc1nnc(-c2ncc(Cl)cc2NS(=O)(=O)c2ccc(C(C)(C)C)cc2)n1C`, the 50% inhibitory concentration (IC50) is under 1 µM. The same measure for `Cc1cnc(-c2nncn2C2CCN(C(=O)OC(C)(C)C)C2)c(NS(=O)(=O)c2ccc(C(C)(C)C)cc2)c1` (centres unmarked): under 1 µM; for `Cc1nnc(-c2ncc(Cl)cc2NS(=O)(=O)c2ccc(C(C)(C)C)cc2)n1C1CC1`: under 1 µM. In the case of `CNC(=O)c1nnc(-c2ncc(Cl)cc2NS(=O)(=O)c2ccc(C(C)(C)C)cc2)n1C(C)C`, the IC50 was under 1 µM.

Turning to `Cc1cnc(-c2nncn2C2CCN(C)C2)c(NS(=O)(=O)c2ccc(C(C)(C)C)cc2)c1` (centres unmarked), the IC50 is under 1 µM. For `CC(=O)Nc1nnc(-c2ncc(Cl)cc2NS(=O)(=O)c2ccc(C(C)(C)C)cc2)n1C(C)C` the value was under 1 µM. For `Cn1c(-c2ncc(Cl)cc2NS(=O)(=O)c2ccc(C(C)(C)C)cc2)nnc1C1CCCN1` (centres unmarked) the value was under 1 µM; for `Cn1cnnc1-c1ncc(Cl)cc1NS(=O)(=O)c1ccc(C(C)(C)C)cc1`, under 1 µM; for `CC(C)n1c(N)nnc1-c1ncc(Cl)cc1NS(=O)(=O)c1ccc(C(C)(C)C)cc1`, under 1 µM. As for `CCn1c(C)nnc1-c1ncc(Cl)cc1NS(=O)(=O)c1ccc(C(C)(C)C)cc1`, the IC50 was under 1 µM. The same measure for `Cn1c(-c2ccncc2)nnc1-c1ncc(Cl)cc1NS(=O)(=O)c1ccc(C(C)(C)C)cc1`: under 1 µM; for `COCc1nnc(-c2ncc(Cl)cc2NS(=O)(=O)c2ccc(C(C)(C)C)cc2)n1C`: under 1 µM; for `CC(C)n1c(-c2ncc(Cl)cc2NS(=O)(=O)c2ccc(C(C)(C)C)cc2)nnc1C(C)(C)O`: under 1 µM. For `CCOC(=O)c1nnc(-c2ncc(Cl)cc2NS(=O)(=O)c2ccc(C(C)(C)C)cc2)n1C(C)C`, the half-maximal inhibitory concentration (IC50) was under 1 µM. For `CCn1c(COC)nnc1-c1ncc(Cl)cc1NS(=O)(=O)c1ccc(C(C)(C)C)cc1` the value was under 1 µM; for `CC(C)(C)c1ccc(S(=O)(=O)Nc2cc(Cl)cnc2-c2nncn2[C@H]2CCNC2)cc1`, under 1 µM. For `COCc1nnc(-c2ncc(Cl)cc2NS(=O)(=O)c2ccc(C(C)(C)C)cc2)n1C(C)C` the value was under 1 µM. For `CC(C)(C)c1ccc(S(=O)(=O)Nc2cc(Cl)cnc2-c2nnc3n2CCOC3)cc1` the value was under 1 µM; for `CC(C)(C)c1ccc(S(=O)(=O)Nc2cc(Cl)cnc2-c2nncn2[C@H]2CCCNC2)cc1`, under 1 µM; for `CC(C)n1cnnc1-c1ncc(Cl)cc1NS(=O)(=O)c1ccc(C(C)(C)C)cc1`, under 1 µM. Consider `CC(C)c1nnc(-c2ncc(Cl)cc2NS(=O)(=O)c2ccc(C(C)(C)C)cc2)n1C`, for which the IC50 was under 1 µM.

On to `COCc1nnc(-c2ncc(Cl)cc2NS(=O)(=O)c2ccc(C(C)(C)C)cc2)n1C1CCOCC1`, for which the IC50 is under 1 µM. For `CC(C)(C)c1ccc(S(=O)(=O)Nc2cc(Cl)cnc2-c2nncn2-c2ccccc2)cc1` the value was under 1 µM. For `Cn1c(-c2cccnc2)nnc1-c1ncc(Cl)cc1NS(=O)(=O)c1ccc(C(C)(C)C)cc1` the value was under 1 µM.
